Patent US20250236608A1, “EGFR INHIBITORS” (Blueprint Medicines Corporation, priority 2022, published 2025)
pIC50: −log10 of the molar value. Structures can show the parent of a compound that is named as a salt.

Assays:
[1] = target: pEGFR (Tyr1068) in PC-9 cells (Ex19Del) (Homo sapiens (Human), UniProt P00533, DEL746-750); assay: PC-9 pEGFR AlphaLISA assay; type: cell-based; conditions: 4 hours incubation, p-EGFR (Tyr1068) AlphaLISA, read-out: Ext pEGFR_PC-9 Ex19Del IC50
Protocol: PC-9/A431 pEGFR AlphaLISA Assays
Inhibitory effects of compounds were evaluated in cellular assays that measure level of intracellular phosphorylation of EGFR in PC-9 (ECACC, #90071810, Milipore/Sigma) and A431 cell lines (ATCC, CRL-1555) using AlphaLISA sureFire ultra p-EGFR (Tyr1068) assay kit (PerkinElmer, ALSU-PEGFR-A50K). PC-9 cells were seeded at 3.125×10^5 cells/ml in 40 μL phenol-free DMEM supplemented with 10% FBS per well of a 384 well plate (Corning, 3764), while A431 were seeded at 3.125×10^5 cells/ml in 40 μL in phenol-free DMEM with 0.5% FBS. Cells were allowed to adhere overnight at 37° C./5% CO2. On the next day, compounds were transferred at 4-fold, 10-point serial dilution from compound source plate to cell plates using liquid handler Echo550 and were incubated at 37° C./5% CO2 for 4 hours. A431 cells were stimulated prior harvesting for 10 min with EGF at final concentration of 30 ng/ml in the incubator. Medium was removed from the plates and cells were lysed with 10 μL of 1× AlphaLISA lysis buffer (supplemented with 1× protease/phosphatase inhibitor cocktail) followed by shaking at 600 rpm for 30 minutes at room temperature. Lysates were transferred to Optiplate (Apricot designs) and 5 μl of 1× acceptor bead mix (prepared just before use) was added to each well followed by incubation at room temperature for 1.5-2 h in dark. Then 5 μL of freshly-made donor bead mix is added to each well under subdued lighting or green filters, was mixed well on the shaker and the plate was sealed and left for an overnight incubation at room temperature in dark. On the next day, the plate was read the Envision using standard AlphaLisa settings. Percent of pEGFR inhibition was plotted against log concentration of compounds to generate IC50 values.

EGFR L858R = EGFR L858R (Homo sapiens (Human), UniProt P00533, L858R); assay: Biochemical EGFR inhibition assay, EGFR L858R; conditions: Caliper mobility shift; 1.0 mM ATP or ATP Km; read-out: Enz EGFR_L858R IC50
Protocol: (§1) Reactions proceeded until between 10% to 20% total peptides were phosphorylated at room temperature (25° C.) and were terminated with 35 mM 2,2′,2″,2″-(ethane-1,2-diyldinitrilo)tetraacetic acid (EDTA). Product was detected using the Caliper mobility shift detection method where the phosphorylated peptide (product) and substrate were electrophoretically separated and measured. Percent activity was plotted against log concentration of compound and points to generate an apparent IC50.

EGFR (d746-750) = EGFR (d746-750) (Homo sapiens (Human), UniProt P00533, DEL746-750); assay: Biochemical EGFR inhibition assay, EGFR (d746-750); conditions: Caliper mobility shift; 1.0 mM ATP or ATP Km; read-out: Enz EGFR_Exon19-del746-750 IC50
Protocol: as §1

| pIC50 [1] | pIC50 (EGFR L858R) | pIC50 (EGFR (d746-750)) | Compound |
| --- | --- | --- | --- |
| 8.21 | 8.37 | 8.68 | COc1cc2ncnc(-c3cn(C)nc3-c3ccccc3)c2cc1NC(=O)N1CCO[C@@H](C)[C@@H]1C [Example 177, (2S,3S)—N-(7-methoxy-4-(1-methyl-3-phenyl-1H-pyrazol-4-yl)quinazolin-6-yl)-2,3-dimethylmorpholine-4-carboxamide] |
| 8.19 |  |  | CCC(=O)Nc1cc2c(-c3cn(C)nc3-c3ccccc3)ncnc2cc1-c1ccncn1 [Example 448, N-(4-(1-methyl-3-phenyl-1H-pyrazol-4-yl)-7-(pyrimidin-4-yl)quinazolin-6-yl)propionamide] |
| 8.30 | 8.44 | 8.70 | COc1cc2ncnc(-c3cn(C)nc3-c3ccccc3)c2cc1OC1CCOCC1 [Example 14, 7-methoxy-4-(1-methyl-3-phenyl-1H-pyrazol-4-yl)-6-((tetrahydro-2H-pyran-4-yl)oxy)quinazoline] |
| 8.82 | 8.82 | 9.10 | CCn1cc(-c2ncnc3cc(OC)c(NC(=O)[C@]45COC[C@H]4C5)cc23)c(-c2ccccc2)n1 [Example 289, (1S,5S)—N-(4-(1-ethyl-3-phenyl-1H-pyrazol-4-yl)-7-methoxyquinazolin-6-yl)-3-oxabicyclo[3.1.0]hexane-1-carboxamide] |
| 8.57 | 8.77 | 9.22 | CCOc1cc2ncnc(-c3cn(C)nc3-c3ccccc3)c2cc1[C@H](C)O (single isomer, unassigned) [Example 103, (S)-1-(7-ethoxy-4-(1-methyl-3-phenyl-1H-pyrazol-4-yl)quinazolin-6-yl)ethan-1-ol or (R)-1-(7-ethoxy-4-(1-methyl-3-phenyl-1H-pyrazol-4-yl)quinazolin-6-yl)ethan-1-ol] |
| 8.77 | 8.80 | 9.00 | CCOc1cc2ncnc(-c3cn(C)nc3-c3ccccc3)c2cc1NC(=O)[C@]12COC[C@H]1C2 [Example 291, (1S,5S)—N-(7-ethoxy-4-(1-methyl-3-phenyl-1H-pyrazol-4-yl)quinazolin-6-yl)-3-oxabicyclo[3.1.0]hexane-1-carboxamide] |
| 8.96 | 9.05 |  | Cn1cc(-c2ccc3c(-c4c[nH]nc4-c4cccc(Cl)c4)ncnc3c2)cn1 [Example 440, 4-(3-(3-chlorophenyl)-1H-pyrazol-4-yl)-7-(1-methyl-1H-pyrazol-4-yl)quinazoline] |
| 7.63 | 8.00 |  | COc1cc2ncnc(-c3cn(C)nc3-c3c(F)cccc3F)c2nc1NC(=O)[C@]12C[C@H]1CN(C)C2 (single isomer, unassigned) [Example 413, (1R,5R)—N-(4-(3-(2,6-difluorophenyl)-1-methyl-1H-pyrazol-4-yl)-7-methoxypyrido[3,2-d]pyrimidin-6-yl)-3-methyl-3-azabicyclo[3.1.0]hexane-1-carboxamide or (1S,5S)—N-(4-(3-(2,6-difluorophenyl)-1-methyl-1H-pyrazol-4-yl)-7-methoxypyrido[3,2-d]pyrimidin-6-yl)-3-methyl-3-azabicyclo[3.1.0]hexane-1-carboxamide] |
| 8.23 |  |  | COc1cc2ncnc(-c3cn(C)nc3-c3ccccc3)c2cc1NC(=O)[C@]12C[C@H]1CN(C)C2 [Example 337, (1R,5R)—N-(7-methoxy-4-(1-methyl-3-phenyl-1H-pyrazol-4-yl)quinazolin-6-yl)-3-methyl-3-azabicyclo[3.1.0]hexane-1-carboxamide] |
| 8.17 | 7.59 |  | COc1cc2ncnc(-c3cn(C)nc3-c3c(F)cccc3F)c2nc1NC(=O)[C@@]12C[C@@H]1CN(C)C2 (single isomer, unassigned) [Example 412, (1S,5S)—N-(4-(3-(2,6-difluorophenyl)-1-methyl-1H-pyrazol-4-yl)-7-methoxypyrido[3,2-d]pyrimidin-6-yl)-3-methyl-3-azabicyclo[3.1.0]hexane-1-carboxamide or (1R,5R)—N-(4-(3-(2,6-difluorophenyl)-1-methyl-1H-pyrazol-4-yl)-7-methoxypyrido[3,2-d]pyrimidin-6-yl)-3-methyl-3-azabicyclo[3.1.0]hexane-1-carboxamide] |
| 8.49 |  |  | COc1cc2ncnc(-c3cn(C)nc3-c3ccccc3)c2cc1NC(=O)[C@@H]1CCN1C (single isomer, unassigned) [Example 252, (S)—N-(7-methoxy-4-(1-methyl-3-phenyl-1H-pyrazol-4-yl)quinazolin-6-yl)-1-methylazetidine-2-carboxamide or (R)—N-(7-methoxy-4-(1-methyl-3-phenyl-1H-pyrazol-4-yl)quinazolin-6-yl)-1-methylazetidine-2-carboxamide] |
|  | 8.09 |  | COc1cc2ncnc(-c3cn(C)nc3-c3ccccc3)c2cc1-c1cc2c[nH]nc2cc1C [Example 146, 7-methoxy-6-(6-methyl-2H-indazol-5-yl)-4-(1-methyl-3-phenyl-1H-pyrazol-4-yl)quinazoline] |
| 8.40 |  |  | COc1cc2ncnc(-c3cn(C)nc3-c3ccccc3)c2cc1NC(=O)[C@@]12C[C@@H]1CN(C)C2 [Example 336, (1S,5S)—N-(7-methoxy-4-(1-methyl-3-phenyl-1H-pyrazol-4-yl)quinazolin-6-yl)-3-methyl-3-azabicyclo[3.1.0]hexane-1-carboxamide] |
| 8.35 |  |  | COc1cc2ncnc(-c3cn(C)nc3-c3ccccc3)c2cc1NC(=O)C12C3C4C1C1C2C3C41NC(=O)OC(C)(C)C (stereo not drawn) [Example 343, tert-butyl (4-((7-methoxy-4-(1-methyl-3-phenyl-1H-pyrazol-4-yl)quinazolin-6-yl)carbamoyl)cuban-1-yl)carbamate] |
| 8.29 |  |  | COc1cc2ncnc(-c3cn(C)nc3-c3ccccc3)c2cc1-c1ccnc(N2CCNCC2)c1 [Example 139, 7-methoxy-4-(1-methyl-3-phenyl-1H-pyrazol-4-yl)-6-(2-(piperazin-1-yl)pyridin-4-yl)quinazoline formate] |
|  | 8.27 | 8.89 | CN1CC[C@@H](Oc2cc3c(-c4cn(C)nc4-c4ccccc4)ncnc3cc2OC2CC2)[C@H](F)C1 [Example 476, 7-cyclopropoxy-6-(((3R,4R)-3-fluoro-1-methylpiperidin-4-yl)oxy)-4-(1-methyl-3-phenyl-1H-pyrazol-4-yl)quinazoline] |
|  | 7.86 |  | COc1cc2ncnc(-c3cn(C)nc3-c3ccccc3)c2cc1-c1cc2c[nH]nc2cc1C [Example 147, 7-methoxy-6-(6-methyl-2H-indazol-5-yl)-4-(1-methyl-3-phenyl-1H-pyrazol-4-yl)quinazoline] |
| 8.46 |  |  | COc1cc2ncnc(-c3cn(C)nc3-c3ccccc3)c2cc1NC(=O)C1CCN1C (stereo not drawn) [Example 251, N-(7-methoxy-4-(1-methyl-3-phenyl-1H-pyrazol-4-yl)quinazolin-6-yl)-1-methylazetidine-2-carboxamide] |
| 8.23 |  |  | COc1cc2ncnc(-c3cn(C)nc3-c3ccccc3)c2cc1-c1ccc2n[nH]cc2c1C [Example 145, 7-methoxy-6-(4-methyl-2H-indazol-5-yl)-4-(1-methyl-3-phenyl-1H-pyrazol-4-yl)quinazoline] |
| 8.08 |  |  | COc1cc2ncnc(-c3cn(C)nc3-c3ccccc3)c2cc1-c1ccc2c(=O)[nH]ccc2c1 [Example 144, 6-(7-methoxy-4-(1-methyl-3-phenyl-1H-pyrazol-4-yl)quinazolin-6-yl)isoquinolin-1(2H)-one] |

| Compound | pIC50 [1] | pIC50 (EGFR L858R) | pIC50 (EGFR (d746-750)) |
| --- | --- | --- | --- |
| 7-ethoxy-6-(2-methyl-2H-indazol-4-yl)-4-(1-methyl-3-phenyl-1H-pyrazol-4-yl)pyrido[3,2-d]pyrimidine [Example 156] | 8.62 | 8.49 |  |
